# Experimental data published in patent US20130190345A1, “MATRINIC ACID/MATRINE DERIVATIVES AND PREPARATION METHODS AND USES THEREOF” (priority 2010, published 2013).
# Experiments:
# Hsc70 [1] = assay: Detection of Hsc70 gene expression level upon action of compound on 2.2.15 cells (real-time fluorescent quantified PCR); format: cell-based; parameters: Hsc70 mRNA / Hsc70 down-regulation rate (%): unit not given here; details: for Hsc70 inhibition rate (down-regulation of Hsc70 expression activity, expressed in relative OMT ratio) / Hsc70 mRNA: 2.2.15 cells; for Hsc70 inhibition rate (down-regulation of Hsc70 expression activity, expressed in relative OMT ratio): relative to OMT (= 1); for Hsc70 mRNA: down-regulation of liver cell Hsc70 gene; for Hsc70 down-regulation rate (%): single value, concentration not given, values coincide with Table 1 relative OMT ratios
# Procedure: 2.2.15 cells (purchased from Vertex Pharmaceutical Co., USA) in a number of 1×10^6 were inocubated to 6-well plate, cultured in a culture medium containing 10% fetal calf serum for 24 hr, the original culture medium was discarded, replaced with a culutre medium containing 400 μg/ml OMTR, which was used as control. Compounds were firstly dissolved in MEM to form 20 mg/ml mother liquid, which was diluted with culture medium when used and then applied to cells. The compounds of Examples 1-114 were separately used for treatment for 12, 24, 36 hr, then cells were harvested for extraction of RNA and DNA, then the changes of Hsc70 mRNA and HBV DNA were detected by real-time fluorescent quantified PCR.
# Hsc70 [2] = assay: Inhibition effects of compound on Hsc70 in Huh7.5 cultured cell (qRT-PCR, Western blotting); format: cell-based; parameters: key to Hsc70 down-regulation rate (%): “—” represents no significant inhibition rate
# Procedure: 2×10^5/ml Huh7.5 cells (purchased from Vertex Pharmaceutical Co., USA) were inoculated in an amount of 3 ml on 6-well culture plate, placed in an incubator with 37° C., 5% CO2 content, saturation humidity, and cultured for 24 h, added with different drug solutions (DM122) formulated with culture medium, and cell control was set. Cultivation was continuously performed in the incubator with 37° C., 5% CO2 content, saturation humidity for 24 h, a kit for RNA extraction was used to extract intracellular RNA from the cells, and one-step qRT-PCR was used to determine intracellular contents of Hsc70 and GAPDHRNA. After the cultivation of cells was performed for 48 h, the cells were digested and harvested, then the cells were split with CytoBuster™ Protein Extraction Buffer that contained many kinds of protease inhibitors, total intracellular proteins were extracted, and Western blotting was used to analyze the contents of Hsc70 and GAPDH proteins. In comparison with the cell control, the inhibition effects on Hsc70 upon action of different drugs were analyzed.
# HCV = assay: Inhibition effects of compounds on HCV in Huh7.5 cultured cell after HCV infection; format: cell-based; details: for EC50 (half effective concentration): virus not given, stands beside HCV inhibition rate
# Procedure: 1×10^5/ml Huh7.5 cells (purchased from Vertex Pharmaceutical Co., USA) were inoculated in an amount of 0.1 ml on 96-well culture plate, placed in an incubator with 37° C., 5% CO2 content and saturation humidity, and cultured for 24 h, HCV virus in 45 IU/cell was used to infect Huh7.5, different drug solutions (DM122) formulated with culture medium were added, and cell control and HCV infection control were set. Cultivation was continuously performed in the incubator with 37° C., 5% CO2 content and saturation humidity for 72 h, kit for RNA extraction was used to extract intracellular RNA, one-step qRT-PCR was used to determine intracellular contents of HCV and GAPDH RNA, and the inhibition effects of drug on HCV infection was analyzed. […] In comparison with the virus control group, the inhibition effects on HCV infection upon action of different drugs were analyzed. […] This experiment was repeated for 3 times, * indicated […] in comparison with control, ** indicated p<0.01 in comparison with control.
# 2.2.15 cells = assay: Drug TC50 by MTT detection; format: cell-based; details: Reed-Muench
# Procedure: 2.2.15 cells (all cells were purchased from Vertex Pharmaceutical Co., USA) in exponential growth phase were inoculated on 96-well culture plate, 2×10^5 cells/well, added with culture media containing PFA diluted in different concentration rates, 3 wells for each diluted concentration, placed in 37° C. CO2—containing incubator and cultivated for 48 h; the supernatant was discarded, 100 μl of MTT (0.5 mg/ml) in culture medium was added, cultivation was continuously performed at 37° C. for 4 h; each well was added to 100 μl of 50% DMF-20% SDS destaining solution, stood at 37° C. overnight; ELISA was used to measure optical density at wavelength of 570 nm (0D570).
# In each experiment, 3 cell control wells and 3 blank controls well were set, the results were used in formula, (cell control OD570-drug-medicated cell OD570)/cell control OD570, to calculate cell death rate (%), and Reed-Muench method was used to calculate half toxic concentration TC50.
Compound,"Hsc70 inhibition rate (down-regulation of Hsc70 expression activity, expressed in relative OMT ratio) (Hsc70 [1])",Hsc70 down-regulation rate (%) (Hsc70 [2]; 200 ug/ml (upper data)),Hsc70 down-regulation rate (%) (Hsc70 [2]; 400 ug/ml (lower data)),HCV inhibition rate (%) (HCV; 200 ug/ml (upper data)),HCV inhibition rate (%) (HCV; 400 ug/ml (lower data)),EC50 (half effective concentration) (HCV),CC50 (concentration to cause poisoning in half cells) (2.2.15 cells),Hsc70 mRNA (Hsc70 [1]),melting point,Hsc70 down-regulation rate (%) (Hsc70 [1])
"O=C(O)CCCC1C2CCCN3CCCC(CN1Cc1ccc(F)cc1)C23 (stereo not drawn) [DM-132, N-(4-fluorobenzyl) matrinic acid]",0.99,80.1 ± 5.7%,32.8 ± 26.8%,67.7 ± 5.8%,82.7 ± 5.6%,52.86 µg/mL,903.2 µg/mL,,,
"O=C(O)CCC[C@@H]1[C@H]2CCCN3CCC[C@@H](CN1Cc1ccc(OC(F)(F)F)cc1)[C@@H]23 [DM-162, N-(4-trifluoromethoxybenzyl) matrinic acid]",,—,—,96.2 ± 0.3%,99.1 ± 0.1%,34.06 µg/mL,431.6 µg/mL,,,
"Cc1cccc(CN2CC3CCCN4CCCC(C2CCCC(=O)O)C34)c1 (stereo not drawn) [DM-139, N-(3-methylbenzyl) matrinic acid]",1.39,20.5 ± 24.8%,—,88.5 ± 4.8%,98.1 ± 1.0%,98.65 µg/mL,885.1 µg/mL,,,
"COc1ccc(S(=O)(=O)N2CC3CCCN4CCCC(C34)C2CCCC(=O)O)cc1 (stereo not drawn) [DM-103, N-(4-methoxybenzenesulfonyl) matrinic acid]",,74.8 ± 5.6%,—,69.1 ± 14.5%,91.4 ± 1.8%,135.71 µg/mL,>1000 µg/mL,,,
"O=C(O)CCC[C@@H]1[C@H]2CCCN3CCC[C@@H](CN1Cc1ccc([N+](=O)[O-])cc1)[C@@H]23 [DM-123, N-(4-nitrobenzyl) matrinic acid]",−1.6,65.9 ± 6.9%,70.5 ± 2.3%,74.0 ± 7.8%,81.1 ± 6.6%,104.61 µg/mL,455.7 µg/mL,,,
"O=C1CC(O)CC2C3CCCN4CCCC(CN12)C34 (stereo not drawn) [Compound 5, β-hydroxyl matrine]",,,,,,,,50.4 ± 0.19,211 to 213 °C,
"O=C(O)CCC[C@@H]1[C@H]2CCCN3CCC[C@@H](CN1Cc1ccccc1F)[C@@H]23 [DM-135, N-(2-fluorobenzyl)matrinic acid]",0.41,0.1 ± 5.6%,—,74.3 ± 8.2%,90.5 ± 2.0%,29.86 µg/mL,620.68 µg/mL,,,
"O=C(O)CCCC1NCC2CCCN3CCCC1C23 (stereo not drawn) [DM-100, matrinic acid]",1.02,,,,,,,,185.7 to 187.7 °C,
"O=C1C(O)C(O)CC2C3CCCN4CCCC(CN12)C34 (stereo not drawn) [Compound 8, 13,14-dihydroxyl matrine]",,,,,,,,38.9 ± 0.13,156 to 158 °C,
"CC(=O)N1C[C@@H]2CCCN3CCC[C@@H](C23)C1CCCC(=O)O (stereo partly drawn) [DM-101, N-acetyl matrinic acid]",0.73,,,,,,,,196.8 to 198.9 °C,
"Cc1ccc(C(=O)N2CC3CCCN4CCCC(C34)C2CCCC(=O)O)cc1 [Compound L7, (5R)—N-(p-methylbenzoyl)matrinic acid]",,63.3 ± 1.2%,—,89.5 ± 2.0%,95.7 ± 1.1%,291.73 µg/mL,>1000 µg/mL,,,
"Cc1ccccc1CN1CC2CCCN3CCCC(C1CCCC(=O)O)C23 (stereo not drawn) [DM-138, N-(2-methylbenzyl) matrinic acid]",1.35,34.8 ± 2.1%,21.1 ± 12.0%,91.5 ± 7.4%,95.1 ± 2.9%,82.49 µg/mL,418.3 µg/mL,,,
CC(=O)N1C[C@H]2CCCN3CCC[C@@H](C23)C1CCCC(=O)O (stereo partly drawn),,,,,,,,,127.4 to 129.6 °C,
"Cc1ccc(CN2CC3CCCN4CCCC(C2CCCC(=O)O)C34)cc1 (stereo not drawn) [DM-140, N-(4-methylbenzyl) matrinic acid]",0.77,53.8 ± 7.6%,—,83.4 ± 1.8%,96.0 ± 1.2%,18.68 µg/mL,>1000 µg/mL,,,
"COC1=CCC2C3CCCN4CCCC(CN2C1=O)C34 (stereo not drawn) [Compound 10, 14-methoxy sophocarpine]",,,,,,,,39.7 ± 0.16,110 to 111 °C,
"Cc1ccc([N+](=O)[O-])cc1C(=O)N1C[C@@H]2CCCN3CCC[C@@H]([C@H]23)[C@H]1CCCC(=O)O [DM-131, N-(2-methyl-5-nitrobenzoyl) matrinic acid]",−0.86,,,,,89.31 µg/mL,>1000 µg/mL,,,−0.86
"O=C(O)CCCC1C2CCCN3CCCC(CN1Cc1cccc(F)c1)C23 (stereo not drawn) [DM-133, N-(3-fluorobenzyl) matrinic acid]",0.81,—,—,96.4 ± 0.8%,98.6 ± 0.8%,67.33 µg/mL,527.8 µg/mL,,,
"O=C(O)CCCC1C2CCCN3CCCC(CN1Cc1ccccn1)C23 (stereo not drawn) [DM-143, N-(pyridin-2-yl) methyl matrinic acid]",1.1,,,,,12.46 µg/mL,374.5 µg/mL,,,1.1
"O=C(O)CCCC1C2CCCN3CCCC(CN1Cc1cccc([N+](=O)[O-])c1)C23 (stereo not drawn) [DM-137, N-(3-nitrobenzyl) matrinic acid]",1.31,—,—,99.8 ± 0.1%,99.7 ± 0.0%,<12.34 µg/mL,471.59 µg/mL,,,
